For orientation: half-life means the time needed for the level to fall by half in the phase considered. As a reminder, the IC50 is the concentration needed to halve the response being measured. The bioavailability is dose-corrected exposure relative to a reference, in per cent. The low end stands for poor availability, the high end for good availability. A word on the EC50: it is the concentration that produces a half-maximal response. A higher EC50 goes with lower potency in that assay.

Data set [1] concerns the target Replicase polyprotein 1ab (Severe acute respiratory syndrome coronavirus 2) (UniProt P0DTD1). Kind of data set: Irreversible inhibition of recombinant full length SARS-CoV-2 3CLpro expressed in Escherichia coli using Ac-Abu-Tle-Leu-Gln-MCA as fluorogenic substrate assessed as inhibition of substrate hydrolysis at upto 500 nM incubated for 60 mins by multimode plate reader analysis. The note with it: TDE = time-dependent effect.

The nature of data set [2]: GSH reactivity in potassium phosphate buffer at pH 7.4 assessed as half life at 1 mM. Type of data set: physicochemical. The note with it: potassium phosphate buffer with GSH.
The next data set addresses Cathepsin B (Homo sapiens, UniProt P07858). Kind of data set: Inhibition of C-terminal His-tagged Human cathepsin B expressed in FreeStyle 293-F cells using Z-Leu-Arg-MCA peptide as fluorogenic substrate preincubated for 30 mins followed by substrate addition and measured after 1 hr by multimode plate reader analysis. Type of data set: cell-based.
In the next data set the target is Procathepsin L (Homo sapiens, UniProt P07711). The data set is described as follows: Inhibition of C-terminal His-tagged recombinant Human cathepsin L (18 to 333 residues) expressed in FreeStyle 293-F cells using Z-Leu-Arg-MCA peptide as fluorogenic substrate preincubated for 30 mins followed by substrate addition and measured after 1 hr by multimode plate reader analysis. Type of data set: cell-based.

The next data set has as its target Cathepsin S (Homo sapiens, UniProt P25774). Kind of data set: Inhibition of C-terminal His-tagged recombinant Human cathepsin S (17 to 331 residues) expressed in FreeStyle 293-F cells using Z-Leu-Arg-MCA peptide as fluorogenic substrate preincubated for 30 mins followed by substrate addition and measured after 1 hr by multimode plate reader analysis. Type of data set: cell-based.

The nature of data set [3]: Bioavailability in fasted ICR/c mouse at 100 mg/kg, po or 10 mg/kg, iv by LC-MS/MS analysis. It is filed as ADME, organism-based. As to conditions: in vivo.
Data set [4] in a line: Drug concentration in fasted ICR/c mouse lungs at 100 mg/kg, po measured after 6 hrs by LC-MS/MS analysis. The note with it: in vivo. Type of data set: ADME, organism-based, Lung.
Data set [5] can be described thus: Drug concentration in fasted ICR/c mouse lungs at 10 mg/kg, iv measured after 6 hrs by LC-MS/MS analysis. Type of data set: ADME, organism-based, Lung. The note with it: in vivo.
Data set [6] is described as follows: Plasma protein binding in mouse assessed as unbound fraction at 1 uM incubated for 16 to 20 hrs by LC-MS/MS analysis. Type of data set: ADME, cell-free. As to conditions: time 16-20 hrs.
A further data set in a line: cells. The note with it: Betacoronavirus 1, HEK-293T.
Data set [7] relates to SARS-CoV-2. The data set is described as follows: microbe, parasite or virus in culture. The note with it: Severe acute respiratory syndrome coronavirus 2, alpha QK002, HEK-293T.
Data set [8] relates to SARS-CoV-2. The data set is described as follows: microbe, parasite or virus in culture. As to conditions: Severe acute respiratory syndrome coronavirus 2, delta TY11-927, HEK-293T.
Data set [9] concerns SARS-CoV-2. Kind of data set: microbe, parasite or virus in culture. As to conditions: Severe acute respiratory syndrome coronavirus 2, Vero C1008.
For another data set, the system named is SARS-CoV. Kind of data set: microbe, parasite or virus in culture. The note with it: Severe acute respiratory syndrome-related coronavirus, HEK-293T.
In data set [10] the test system is Middle East respiratory syndrome-related coronavirus. The data set is described as follows: microbe, parasite or virus in culture. The note with it: EMC2012, HEK-293T.
Data set [11] has as its target Replicase polyprotein 1ab (Severe acute respiratory syndrome coronavirus 2, UniProt P0DTD1). The data set is described as follows: Inhibition of recombinant full length SARS-CoV-2 3CLpro expressed in Escherichia coli using Ac-Abu-Tle-Leu-Gln-MCA as fluorogenic substrate preincubated for 30 mins followed by substrate addition and measured for 6 hrs by multimode plate reader analysis.

For data set [12], the system named is SARS-CoV-2. Kind of data set: microbe, parasite or virus in culture. As to conditions: Severe acute respiratory syndrome coronavirus 2, HEK-293T.
Data set [13] deals with SARS-CoV-2. The data set is described as follows: microbe, parasite or virus in culture. As to conditions: Severe acute respiratory syndrome coronavirus 2, Vero C1008. The source holds these as a separate data set.
In data set [14] the target is Replicase polyprotein 1ab (Severe acute respiratory syndrome coronavirus 2) (UniProt P0DTD1). Kind of data set: Binding affinity to SARS-CoV-2 3CLpro spiked in human A-431 cells assessed as increase in fluorescence intensity at 0.1 uM incubated for 1 hr by gel electrophoresis based fluorescence analysis. It is filed as cell-based.
A short description of data set [15]: Toxicity in fasted ICR/c mouse assessed as hypotension at 100 mg/kg, po. It is filed as organism-based. As to conditions: in vivo.
Data set [16] can be described thus: Toxicity in fasted ICR/c mouse assessed as debilitation at 100 mg/kg, po. Type of data set: organism-based. As to conditions: in vivo.

Calls of active or inactive are those of the source.

Cathepsin S, sequence (P25774 whole entry, the tested form may be a part): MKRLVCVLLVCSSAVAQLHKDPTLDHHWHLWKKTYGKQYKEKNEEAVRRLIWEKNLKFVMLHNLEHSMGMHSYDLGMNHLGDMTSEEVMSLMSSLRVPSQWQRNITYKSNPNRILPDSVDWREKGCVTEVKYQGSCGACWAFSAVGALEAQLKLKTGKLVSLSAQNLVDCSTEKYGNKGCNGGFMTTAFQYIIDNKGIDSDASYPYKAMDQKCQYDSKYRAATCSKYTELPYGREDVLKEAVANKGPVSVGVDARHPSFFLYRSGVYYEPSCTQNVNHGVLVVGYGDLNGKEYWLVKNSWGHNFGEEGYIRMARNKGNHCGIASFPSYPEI
Procathepsin L, sequence (P07711 whole entry, the tested form may be a part): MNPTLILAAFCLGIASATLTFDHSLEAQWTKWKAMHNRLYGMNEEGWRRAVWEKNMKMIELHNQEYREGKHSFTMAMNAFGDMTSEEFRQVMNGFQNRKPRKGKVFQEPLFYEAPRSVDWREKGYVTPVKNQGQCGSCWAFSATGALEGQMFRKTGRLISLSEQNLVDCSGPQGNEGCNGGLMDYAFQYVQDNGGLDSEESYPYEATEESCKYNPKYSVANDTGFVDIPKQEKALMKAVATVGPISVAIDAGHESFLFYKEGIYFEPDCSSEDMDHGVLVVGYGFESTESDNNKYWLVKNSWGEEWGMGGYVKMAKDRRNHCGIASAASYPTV

Regarding `CC(C)C[C@H](NC(=O)c1cc2c(F)cccc2[nH]1)C(=O)NN(C[C@@H]1CCNC1=O)C(=O)[C@H](F)Cl`, the inhibition result in [1] is “Tde”. In data set [2], the half-life at 1000 µM was 48.2 h. Also, the concentration for half-maximal inhibition (IC50) against Cathepsin B, on Procathepsin L and at Cathepsin S was greater than 50000 nM in each case. Moreover, the bioavailability in [3] amounted to 9%. Further, the values for the Ct in data set [4] and in data set [5] were 78 nmol/mg and 63 nmol/mg, respectively. Moreover, in data set [6], the Fu came out at 0.15%. The EC50 worked out at 1.67 nM in the data set “cells”; 13.8 nM in the data set with SARS-CoV-2 [7]; 737 nM with SARS-CoV-2 [8]; 59 nM in the data set with SARS-CoV-2 [9]; 59.3 nM in the data set with SARS-CoV; 4.72 nM in data set [10].

With `CC(=O)N(C[C@@H]1CCNC1=O)NC(=O)[C@H](CC(C)C)NC(=O)c1cc2c(F)cccc2[nH]1`, the IC50 in data set [11] came to 332 nM.

As to `COc1cccc2[nH]c(C(=O)N[C@@H](CC(C)C)C(=O)NN(C[C@H]3CCNC3=O)C(=O)[C@H](F)Cl)cc12`, the EC50 in the data set on SARS-CoV-2 [12] was 119 nM; with SARS-CoV-2 [7], 103 nM; in the data set with SARS-CoV-2 [8], 50 nM; with SARS-CoV-2 [13], greater than 50000 nM; in the data set with SARS-CoV-2 [9] it was 389 nM.

Consider `CC(C)C[C@H](NC(=O)c1cc2c(F)cccc2[nH]1)C(=O)NN(C[C@@H]1CCNC1=O)C(=O)[C@@H](F)Cl`, for which the inhibition entry in data set [1] was “Tde”. Moreover, the EC50 in the data set on SARS-CoV-2 [12] was 198 nM; with SARS-CoV-2 [7], 69 nM; in the data set on SARS-CoV-2 [8], 48.7 nM.

For `C#CCOc1cccc2[nH]c(C(=O)N[C@@H](CC(C)C)C(=O)NN(C[C@@H]3CCNC3=O)C(=O)[C@H](F)Cl)cc12`, in [14], the outcome was Active.

Consider `CC(C)C[C@H](NC(=O)c1cc2c(F)cccc2[nH]1)C(=O)NN(C[C@H]1CCNC1=O)C(=O)[C@H](F)Cl`, for which the EC50 with SARS-CoV-2 [12] was 141 nM; in the data set with SARS-CoV-2 [7], 92.3 nM; with SARS-CoV-2 [8] it was 44.5 nM; with SARS-CoV-2 [13], greater than 50000 nM; in the data set with SARS-CoV-2 [9], 423 nM.

For `COc1cccc2[nH]c(C(=O)N[C@@H](CC(C)C)C(=O)N[C@@H](C[C@@H]3CCNC3=O)C(=O)CO)cc12` [PF-00835231], the EC50 in the data set “cells” was 929 nM; with SARS-CoV-2 [12], 915 nM; in the data set on SARS-CoV-2 [7] it was 1600 nM; with SARS-CoV-2 [8] it was 692 nM; with SARS-CoV-2 [13] it was greater than 50000 nM; in the data set on SARS-CoV-2 [9], 509 nM. Also, the values for the EC50 (in the data set with SARS-CoV; in data set [10]) were 3240 nM and 700 nM, respectively.

As to `O=c1nc(NO)ccn1[C@@H]1O[C@H](CO)[C@@H](O)[C@H]1O` [N-HYDROXYCYTIDINE], the EC50 amounted to 1190 nM in the data set “cells”; 446 nM in the data set with SARS-CoV-2 [12]; 1220 nM with SARS-CoV-2 [7]; 351 nM in the data set on SARS-CoV-2 [8]; 204 nM in the data set on SARS-CoV-2 [13]; 238 nM in the data set on SARS-CoV-2 [9]. The EC50 in the data set on SARS-CoV was 1560 nM; in data set [10], 1320 nM.

With `COc1cccc2[nH]c(C(=O)N[C@@H](CC(C)C)C(=O)NN(C[C@@H]3CCNC3=O)C(=O)[C@H](F)Cl)cc12`, in data set [11], the 50% inhibitory concentration (IC50) stood at 9.5 nM. In addition, the Activity entry in data set [15] and in data set [16] was “Toxic” throughout. Also, the EC50 in the data set “cells” worked out at 3.18 nM; with SARS-CoV-2 [12], 24.4 nM; in the data set with SARS-CoV-2 [7], 16.2 nM; in the data set on SARS-CoV-2 [8], 8.79 nM; in the data set with SARS-CoV-2 [13], 20800 nM; with SARS-CoV-2 [9], 69.7 nM. Besides, the EC50 was 64.4 nM in the data set on SARS-CoV and 5.01 nM in [10].

The values above are taken from ChEMBL document CHEMBL5108072, “Discovery of Chlorofluoroacetamide-Based Covalent Inhibitors for Severe Acute Respiratory Syndrome Coronavirus 2 3CL Protease” (J Med Chem, 2022).
